Data reported in PubChem BioAssay (NCI).
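Cultured in 96-well plates, cells were exposed to test compound for 48 hours across five concentrations. TGI: concentration producing complete growth inhibition.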

Assays:
Experiment in all cases: NCI-60 cell line screen, 48 h
[1] = tested on: 786-0 renal
[2] = tested on: A549 NSCLC
[3] = tested on: ACHN renal
[4] = tested on: CAKI-1 renal
[5] = tested on: CCRF-CEM leukemia
[6] = tested on: COLO 205 colon
[7] = tested on: DLD-1 colon
[8] = tested on: DMS 114 small cell lung
[9] = tested on: DMS 273 small cell lung
[10] = tested on: HCC-2998 colon
[11] = tested on: HCT-116 colon
[12] = tested on: HCT-15 colon
[13] = tested on: HL-60(TB) leukemia
[14] = tested on: HOP-18 NSCLC
[15] = tested on: HOP-62 NSCLC
[16] = tested on: HT29 colon
[17] = tested on: IGROV1 ovarian
[18] = tested on: K-562 leukemia
[19] = tested on: KM12 colon
[20] = tested on: KM20L2 colon
[21] = tested on: LXFL 529 NSCLC
[22] = tested on: M14 melanoma
[23] = tested on: M19-MEL melanoma
[24] = tested on: MALME-3M melanoma
[25] = tested on: MOLT-4 leukemia
[26] = tested on: NCI-H226 lung
[27] = tested on: NCI-H23 lung
[28] = tested on: NCI-H460 lung
[29] = tested on: NCI-H522 lung
[30] = tested on: OVCAR-3 ovarian
[31] = tested on: OVCAR-4 ovarian
[32] = tested on: OVCAR-5 ovarian
[33] = tested on: OVCAR-8 ovarian
[34] = tested on: RPMI-8226 leukemia
[35] = tested on: RXF 393 renal
[36] = tested on: SF-268 CNS
[37] = tested on: SF-295 CNS
[38] = tested on: SF-539 CNS
[39] = tested on: SK-MEL-2 melanoma
[40] = tested on: SK-MEL-28 melanoma
[41] = tested on: SK-MEL-5 melanoma
[42] = tested on: SK-OV-3 ovarian
[43] = tested on: SN12C renal
[44] = tested on: SNB-19 CNS
[45] = tested on: SNB-75 CNS
[46] = tested on: SNB-78 CNS
[47] = tested on: SR leukemia
[48] = tested on: SW-620 colon
[49] = tested on: U251 CNS
[50] = tested on: UACC-257 melanoma
[51] = tested on: UO-31 renal
[52] = tested on: A498 renal
[53] = tested on: EKVX NSCLC
[54] = tested on: HOP-92 NSCLC
[55] = tested on: LOX IMVI melanoma
[56] = tested on: TK-10 renal
[57] = tested on: UACC-62 melanoma
[58] = tested on: XF 498 CNS

SMILES: COC1OC(C)C(OC(=O)C(C)(C)C)C(OS(=O)(=O)c2ccc(C)cc2)C1OS(=O)(=O)c1ccc(C)cc1 (configuration not stated)
- TGI [1]: > 100 µM
- TGI [2]: > 100 µM
- TGI [3]: > 100 µM
- TGI [4]: > 100 µM
- TGI [5]: > 100 µM
- TGI [6]: > 100 µM
- TGI [7]: > 100 µM
- TGI [8]: > 100 µM
- TGI [9]: > 100 µM
- TGI [10]: > 100 µM
- TGI [11]: > 100 µM
- TGI [12]: > 100 µM
- TGI [13]: > 100 µM
- TGI [14]: > 100 µM
- TGI [15]: > 100 µM
- TGI [16]: > 100 µM
- TGI [17]: > 100 µM
- TGI [18]: > 100 µM
- TGI [19]: > 100 µM
- TGI [20]: > 100 µM
- TGI [21]: > 100 µM
- TGI [22]: > 100 µM
- TGI [23]: > 100 µM
- TGI [24]: > 100 µM
- TGI [25]: > 100 µM
- TGI [26]: > 100 µM
- TGI [27]: > 100 µM
- TGI [28]: > 100 µM
- TGI [29]: > 100 µM
- TGI [30]: > 100 µM
- TGI [31]: > 100 µM
- TGI [32]: > 100 µM
- TGI [33]: > 100 µM
- TGI [34]: > 100 µM
- TGI [35]: > 100 µM
- TGI [36]: > 100 µM
- TGI [37]: > 100 µM
- TGI [38]: > 100 µM
- TGI [39]: > 100 µM
- TGI [40]: > 100 µM
- TGI [41]: > 100 µM
- TGI [42]: > 100 µM
- TGI [43]: > 100 µM
- TGI [44]: > 100 µM
- TGI [45]: > 100 µM
- TGI [46]: > 100 µM
- TGI [47]: > 100 µM
- TGI [48]: > 100 µM
- TGI [49]: > 100 µM
- TGI [50]: > 100 µM
- TGI [51]: > 100 µM

SMILES: CSC1C=C(C(C)C)CCC1(C)SC (configuration not stated)
- TGI [1]: 31.7 µM
- TGI [52]: 40.4 µM
- TGI [2]: 78.4 µM
- TGI [3]: 32.6 µM
- TGI [4]: 32.4 µM
- TGI [5]: 57 µM
- TGI [6]: 29.7 µM
- TGI [7]: 32.4 µM
- TGI [8]: 30.6 µM
- TGI [9]: 33 µM
- TGI [53]: 44.7 µM
- TGI [10]: 30.9 µM
- TGI [11]: 37.1 µM
- TGI [12]: 39.9 µM
- TGI [13]: 27.8 µM
- TGI [15]: 35.5 µM
- TGI [54]: 31.2 µM
- TGI [16]: 29.6 µM
- TGI [17]: 35.5 µM
- TGI [18]: 40.9 µM
- TGI [19]: 27.7 µM
- TGI [20]: 56.8 µM
- TGI [55]: 32.5 µM
- TGI [21]: 32.9 µM
- TGI [22]: 32 µM
- TGI [23]: 31.3 µM
- TGI [24]: 26.1 µM
- TGI [25]: 40 µM
- TGI [26]: 31.6 µM
- TGI [27]: 35.7 µM
- TGI [28]: 30.9 µM
- TGI [29]: 31.6 µM
- TGI [30]: 25.2 µM
- TGI [31]: 33.9 µM
- TGI [32]: 30.5 µM
- TGI [33]: 35.5 µM
- TGI [34]: 59.4 µM
- TGI [35]: 29 µM
- TGI [36]: 35.1 µM
- TGI [38]: 33.6 µM
- TGI [39]: 32.8 µM
- TGI [40]: 34.2 µM
- TGI [41]: 31.3 µM
- TGI [42]: 39.3 µM
- TGI [43]: 30.6 µM
- TGI [44]: 36.9 µM
- TGI [45]: 31.7 µM
- TGI [46]: 32.3 µM
- TGI [48]: 38 µM
- TGI [56]: 41.4 µM
- TGI [49]: 33.7 µM
- TGI [50]: 29.4 µM
- TGI [57]: 47.6 µM
- TGI [51]: 27.4 µM
- TGI [58]: 33.8 µM

SMILES: CC1=Nn2c(nnc2-c2ccccc2Cl)NC(C)(C)C1
- TGI [1]: > 100 µM
- TGI [2]: > 100 µM
- TGI [3]: > 100 µM
- TGI [4]: > 100 µM
- TGI [5]: > 100 µM
- TGI [6]: > 100 µM
- TGI [7]: > 100 µM
- TGI [9]: > 100 µM
- TGI [53]: > 100 µM
- TGI [10]: > 100 µM
- TGI [11]: > 100 µM
- TGI [12]: > 100 µM
- TGI [13]: > 100 µM
- TGI [15]: > 100 µM
- TGI [54]: > 100 µM
- TGI [16]: > 100 µM
- TGI [17]: > 100 µM
- TGI [18]: > 100 µM
- TGI [19]: > 100 µM
- TGI [20]: > 100 µM
- TGI [55]: > 100 µM
- TGI [21]: > 100 µM
- TGI [22]: > 100 µM
- TGI [23]: > 100 µM
- TGI [25]: > 100 µM
- TGI [26]: > 100 µM
- TGI [27]: > 100 µM
- TGI [28]: > 100 µM
- TGI [29]: > 100 µM
- TGI [31]: > 100 µM
- TGI [32]: > 100 µM
- TGI [33]: > 100 µM
- TGI [34]: 54.3 µM
- TGI [36]: > 100 µM
- TGI [37]: > 100 µM
- TGI [38]: > 100 µM
- TGI [39]: > 100 µM
- TGI [40]: > 100 µM
- TGI [41]: > 100 µM
- TGI [42]: > 100 µM
- TGI [43]: > 100 µM
- TGI [44]: > 100 µM
- TGI [45]: > 100 µM
- TGI [46]: > 100 µM
- TGI [47]: 74.4 µM
- TGI [48]: 35.8 µM
- TGI [56]: > 100 µM
- TGI [49]: > 100 µM
- TGI [57]: > 100 µM
- TGI [51]: > 100 µM
- TGI [58]: > 100 µM
